Molecular target: T1, human KSP motor domain (Homo sapiens, UniProt P52732)
T1 construct: were used to amplify the motor domain and the neck linker region; made in house; host or cells: E. coli BL21 (DE3)
T1 sequence (P52732 18-359 limits assumed): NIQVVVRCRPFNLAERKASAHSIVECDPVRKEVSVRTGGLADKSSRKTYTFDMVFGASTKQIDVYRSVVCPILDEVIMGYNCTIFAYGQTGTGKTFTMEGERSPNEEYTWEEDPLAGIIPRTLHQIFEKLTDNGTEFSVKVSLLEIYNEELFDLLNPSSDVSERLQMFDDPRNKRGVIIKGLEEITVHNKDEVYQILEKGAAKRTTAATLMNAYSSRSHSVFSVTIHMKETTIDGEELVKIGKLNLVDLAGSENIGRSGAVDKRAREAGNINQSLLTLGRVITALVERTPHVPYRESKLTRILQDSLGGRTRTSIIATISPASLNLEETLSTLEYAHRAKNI
Test: Kinesin ATPase In Vitro Assay
Type: biochemical
Conditions: human poly-histidine tagged KSP motor domain (KSP(367H)), microtubules, 1 mM ATP, 23° C.
Source text: I. Kinesin ATPase In Vitro Assay
Cloning and Expression of Human Poly-Histidine Tagged KSP Motor Domain (KSP(367H))
Plasmids for the expression of the human KSP motor domain construct were cloned by PCR using a pBluescript full length human KSP construct (Blangy et al., Cell, vol. 83, pp 1159-1169, 1995) as a template. The N-terminal primer 5′-[…] (SEQ. ID. NO.: 1) and the C-terminal primer 5′-[…] […] (SEQ. ID. NO.: 2) were used to amplify the motor domain and the neck linker region. The PCR products were digested with AseI and XhoI, ligated into the NdeI/XhoI digestion product of pRSETa (Invitrogen) and transformed into E. coli BL21 (DE3).
Cells were grown at 37° C. to an OD600 of 0.5. […]
The kinesin motor domain is incubated with microtubules, 1 mM ATP (1:1 MgCl2: Na-ATP), and compound at 23° C. in buffer containing 80 mM K-HEPES (pH 7.0), 1 mM EGTA, 1 mM DTT, 1 mM MgCl2, and 50 mM KCl. […] Free phosphate from the ATP hydrolysis reaction is measured via a quinaldine red/ammonium molybdate assay by adding 150 μl of quench C buffer containing a 2:1 ratio of quench A:quench B. Quench A contains 0.1 mg/ml quinaldine red and 0.14% polyvinyl alcohol; quench B contains 12.3 mM ammonium molybdate tetrahydrate in 1.15 M sulfuric acid. The reaction is incubated for 10 minutes at 23° C., and the absorbance of the phospho-molybdate complex is measured at 540 nm.

IC50: ≤ 50 µM
Structure (SMILES): Cc1ccc(-n2c(-c3ccccc3Br)nc3sccc3c2=O)cc1 [1-4, 2-(2-bromophenyl)-3-(4-methylphenyl)thieno[2,3-d]pyrimidin-4(3H)-one]
